{
  "source": "ChEMBL document CHEMBL4033700",
  "about": "“From a novel HTS hit to potent, selective, and orally bioavailable KDM5 inhibitors” (Bioorg Med Chem Lett, 2017)",
  "key": {"[1]": {"assay": "Hepatic clearance in human hepatocytes", "assay_type": "ADME, cell-based, Hepatocyte"}, "[2]": {"target": "Lysine-specific demethylase 5C (Homo sapiens, UniProt P41229)", "sequence (P41229 whole entry)": "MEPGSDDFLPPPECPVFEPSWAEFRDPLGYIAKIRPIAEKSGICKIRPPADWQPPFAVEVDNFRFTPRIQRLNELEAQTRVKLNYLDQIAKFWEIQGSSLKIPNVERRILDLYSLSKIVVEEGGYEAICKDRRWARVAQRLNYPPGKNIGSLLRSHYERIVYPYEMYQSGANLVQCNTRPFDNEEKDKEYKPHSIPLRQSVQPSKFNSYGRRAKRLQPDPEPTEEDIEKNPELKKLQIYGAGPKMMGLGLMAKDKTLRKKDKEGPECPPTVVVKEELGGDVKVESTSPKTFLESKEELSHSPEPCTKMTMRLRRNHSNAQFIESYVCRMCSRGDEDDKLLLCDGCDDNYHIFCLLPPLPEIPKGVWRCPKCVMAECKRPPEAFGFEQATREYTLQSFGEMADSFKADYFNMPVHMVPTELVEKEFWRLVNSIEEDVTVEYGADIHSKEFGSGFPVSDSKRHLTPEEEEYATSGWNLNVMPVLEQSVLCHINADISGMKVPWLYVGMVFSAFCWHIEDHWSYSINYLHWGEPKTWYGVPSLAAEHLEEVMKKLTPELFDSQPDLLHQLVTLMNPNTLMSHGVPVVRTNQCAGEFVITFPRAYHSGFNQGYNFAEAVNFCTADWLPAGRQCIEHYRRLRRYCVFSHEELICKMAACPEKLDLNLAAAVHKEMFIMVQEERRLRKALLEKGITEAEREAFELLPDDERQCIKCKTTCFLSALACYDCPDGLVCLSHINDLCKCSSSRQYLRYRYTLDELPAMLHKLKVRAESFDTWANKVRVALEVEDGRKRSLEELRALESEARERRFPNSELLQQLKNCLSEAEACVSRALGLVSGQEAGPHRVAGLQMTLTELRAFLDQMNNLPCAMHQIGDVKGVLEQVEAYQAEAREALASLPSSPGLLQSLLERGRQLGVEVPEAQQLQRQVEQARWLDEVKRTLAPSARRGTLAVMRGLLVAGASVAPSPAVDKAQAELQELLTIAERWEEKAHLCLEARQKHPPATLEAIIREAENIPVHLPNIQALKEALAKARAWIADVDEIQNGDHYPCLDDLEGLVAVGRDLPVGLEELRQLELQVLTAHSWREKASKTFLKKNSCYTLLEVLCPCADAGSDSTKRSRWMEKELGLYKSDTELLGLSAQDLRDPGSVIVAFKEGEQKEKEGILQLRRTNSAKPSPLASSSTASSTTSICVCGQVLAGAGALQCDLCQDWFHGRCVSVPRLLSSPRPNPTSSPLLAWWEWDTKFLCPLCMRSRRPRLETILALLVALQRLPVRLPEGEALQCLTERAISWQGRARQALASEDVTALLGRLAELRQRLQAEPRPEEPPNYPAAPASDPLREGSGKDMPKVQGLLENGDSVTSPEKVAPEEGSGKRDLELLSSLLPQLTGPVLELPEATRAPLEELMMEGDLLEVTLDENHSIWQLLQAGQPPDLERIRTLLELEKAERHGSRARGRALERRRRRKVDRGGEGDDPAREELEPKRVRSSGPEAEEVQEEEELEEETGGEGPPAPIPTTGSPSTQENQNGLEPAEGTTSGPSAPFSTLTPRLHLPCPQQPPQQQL", "assay": "Inhibition of recombinant human N-terminal FLAG-tagged KDM5C expressed in baculovirus infected Sf9 insect cells using H3K4me3 peptide as substrate after 30 to 45 mins by TR-FRET assay"}, "[3]": {"target": "Lysine-specific demethylase 6A (Homo sapiens, UniProt O15550)", "sequence (O15550 whole entry)": "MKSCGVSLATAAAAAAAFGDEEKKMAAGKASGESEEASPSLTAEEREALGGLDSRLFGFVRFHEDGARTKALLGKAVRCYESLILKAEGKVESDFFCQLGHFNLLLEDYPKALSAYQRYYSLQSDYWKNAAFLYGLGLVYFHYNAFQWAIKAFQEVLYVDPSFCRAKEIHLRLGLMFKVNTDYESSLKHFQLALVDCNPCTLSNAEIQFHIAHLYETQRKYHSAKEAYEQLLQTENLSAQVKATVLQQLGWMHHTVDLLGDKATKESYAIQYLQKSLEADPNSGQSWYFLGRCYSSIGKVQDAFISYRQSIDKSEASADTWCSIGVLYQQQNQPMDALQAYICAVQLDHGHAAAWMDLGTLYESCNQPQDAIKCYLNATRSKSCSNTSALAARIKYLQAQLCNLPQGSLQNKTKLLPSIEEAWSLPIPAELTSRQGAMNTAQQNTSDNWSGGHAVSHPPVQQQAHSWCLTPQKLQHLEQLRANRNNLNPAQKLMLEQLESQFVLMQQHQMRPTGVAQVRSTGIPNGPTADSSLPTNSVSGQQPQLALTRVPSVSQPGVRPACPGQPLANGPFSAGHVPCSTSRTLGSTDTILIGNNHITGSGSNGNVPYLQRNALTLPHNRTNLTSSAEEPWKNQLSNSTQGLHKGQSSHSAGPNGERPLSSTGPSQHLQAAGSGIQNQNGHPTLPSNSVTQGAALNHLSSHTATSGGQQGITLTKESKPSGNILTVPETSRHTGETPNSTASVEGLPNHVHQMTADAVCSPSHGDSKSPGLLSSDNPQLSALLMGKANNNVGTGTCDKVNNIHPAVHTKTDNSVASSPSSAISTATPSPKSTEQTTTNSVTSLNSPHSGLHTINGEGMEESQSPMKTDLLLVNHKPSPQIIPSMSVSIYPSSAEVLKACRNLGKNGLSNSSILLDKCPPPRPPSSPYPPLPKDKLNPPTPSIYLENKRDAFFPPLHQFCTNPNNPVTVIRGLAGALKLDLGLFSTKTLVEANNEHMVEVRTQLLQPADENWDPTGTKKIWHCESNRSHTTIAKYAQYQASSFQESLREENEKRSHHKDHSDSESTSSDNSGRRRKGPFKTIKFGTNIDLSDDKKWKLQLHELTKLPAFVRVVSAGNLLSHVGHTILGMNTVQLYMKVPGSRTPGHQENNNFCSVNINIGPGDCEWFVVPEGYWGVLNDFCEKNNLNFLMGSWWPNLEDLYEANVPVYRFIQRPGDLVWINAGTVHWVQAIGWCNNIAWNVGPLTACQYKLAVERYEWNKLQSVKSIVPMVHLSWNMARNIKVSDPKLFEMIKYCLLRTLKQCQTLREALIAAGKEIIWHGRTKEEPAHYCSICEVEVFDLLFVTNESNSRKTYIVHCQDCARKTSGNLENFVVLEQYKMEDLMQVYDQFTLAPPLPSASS", "assay": "Inhibition of recombinant human N-terminal FLAG-tagged KDM6A expressed in baculovirus infected Sf9 insect cells using H3K27me3 peptide as substrate after 30 to 45 mins by TR-FRET assay"}, "[4]": {"assay": "Lipophilicity, log D of the compound at pH 7.4", "assay_type": "physicochemical", "details": "buffer"}, "[5]": {"assay": "Hepatic clearance in human liver microsomes", "assay_type": "ADME, microsome"}, "[6]": {"target": "Histone lysine demethylase PHF8 (Homo sapiens, UniProt Q9UPP1)", "assay": "Inhibition of recombinant human N-terminal FLAG-tagged KDM7B expressed in baculovirus infected Sf9 insect cells using H3K9me1 peptide as substrate after 30 to 45 mins by TR-FRET assay"}, "[7]": {"assay": "Protein binding in mouse plasma", "assay_type": "ADME, cell-free", "details": "read-out: PPB (converted)"}, "[8]": {"assay": "Kinetic solubility of the compound", "assay_type": "physicochemical", "details": "read-out: Kinetic_solubility"}, "[9]": {"assay": "Protein binding in rat plasma", "assay_type": "ADME, cell-free", "details": "read-out: PPB (converted)"}, "[10]": {"assay": "Hepatic clearance in rat hepatocytes", "assay_type": "ADME, cell-based, Hepatocyte"}, "[11]": {"assay": "Protein binding in human plasma", "assay_type": "ADME, cell-free", "details": "read-out: PPB (converted)"}, "[12]": {"assay": "Hepatic clearance in mouse liver microsomes", "assay_type": "ADME, microsome"}, "[13]": {"target": "T1, Lysine-specific demethylase 2B (Homo sapiens, UniProt Q8NHM5)", "T1 sequence (Q8NHM5 whole entry)": "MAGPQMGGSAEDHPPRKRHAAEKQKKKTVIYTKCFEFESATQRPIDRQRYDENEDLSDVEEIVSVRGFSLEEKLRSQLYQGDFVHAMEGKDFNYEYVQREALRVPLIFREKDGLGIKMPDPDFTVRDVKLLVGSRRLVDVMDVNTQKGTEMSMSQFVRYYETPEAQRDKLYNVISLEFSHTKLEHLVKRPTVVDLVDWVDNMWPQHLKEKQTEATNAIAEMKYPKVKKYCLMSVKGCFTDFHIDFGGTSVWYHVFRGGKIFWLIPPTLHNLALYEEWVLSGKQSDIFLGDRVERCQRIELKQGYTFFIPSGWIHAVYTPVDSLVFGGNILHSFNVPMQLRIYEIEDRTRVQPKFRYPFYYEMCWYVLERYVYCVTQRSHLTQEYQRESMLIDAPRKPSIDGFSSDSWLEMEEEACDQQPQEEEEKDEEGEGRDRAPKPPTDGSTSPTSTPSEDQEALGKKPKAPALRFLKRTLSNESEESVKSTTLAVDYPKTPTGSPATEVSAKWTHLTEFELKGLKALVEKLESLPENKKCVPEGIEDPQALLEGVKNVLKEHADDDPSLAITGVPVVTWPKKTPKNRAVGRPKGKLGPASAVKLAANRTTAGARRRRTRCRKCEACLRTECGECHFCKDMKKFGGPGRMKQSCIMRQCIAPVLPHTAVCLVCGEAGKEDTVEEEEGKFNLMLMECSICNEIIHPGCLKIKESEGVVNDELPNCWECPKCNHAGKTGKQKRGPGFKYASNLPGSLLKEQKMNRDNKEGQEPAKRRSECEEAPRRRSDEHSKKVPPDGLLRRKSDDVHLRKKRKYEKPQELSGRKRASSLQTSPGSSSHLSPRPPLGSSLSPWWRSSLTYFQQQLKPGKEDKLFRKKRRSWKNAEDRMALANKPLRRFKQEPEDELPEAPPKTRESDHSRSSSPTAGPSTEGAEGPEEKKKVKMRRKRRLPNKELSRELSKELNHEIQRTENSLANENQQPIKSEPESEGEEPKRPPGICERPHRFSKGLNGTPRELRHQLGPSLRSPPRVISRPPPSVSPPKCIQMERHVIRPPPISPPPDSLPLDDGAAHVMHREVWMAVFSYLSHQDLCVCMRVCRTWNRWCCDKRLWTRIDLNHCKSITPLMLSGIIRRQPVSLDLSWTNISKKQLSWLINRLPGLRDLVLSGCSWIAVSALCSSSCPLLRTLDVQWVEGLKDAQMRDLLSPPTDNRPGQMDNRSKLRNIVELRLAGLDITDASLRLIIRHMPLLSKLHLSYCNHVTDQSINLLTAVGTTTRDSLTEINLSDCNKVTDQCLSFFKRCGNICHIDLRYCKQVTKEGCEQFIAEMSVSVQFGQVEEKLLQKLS", "assay": "Inhibition of recombinant human N-terminal FLAG-tagged KDM2B expressed in baculovirus infected Sf9 insect cells using H3K36me2 peptide as substrate after 30 to 45 mins by TR-FRET assay"}, "[14]": {"assay": "Volume of distribution in CD-1 mouse plasma at 1 mg/kg, iv or 5 mg/kg, po", "assay_type": "ADME, organism-based"}, "[15]": {"target": "Lysine-specific demethylase 5A (Homo sapiens, UniProt P29375)", "sequence (P29375 whole entry)": "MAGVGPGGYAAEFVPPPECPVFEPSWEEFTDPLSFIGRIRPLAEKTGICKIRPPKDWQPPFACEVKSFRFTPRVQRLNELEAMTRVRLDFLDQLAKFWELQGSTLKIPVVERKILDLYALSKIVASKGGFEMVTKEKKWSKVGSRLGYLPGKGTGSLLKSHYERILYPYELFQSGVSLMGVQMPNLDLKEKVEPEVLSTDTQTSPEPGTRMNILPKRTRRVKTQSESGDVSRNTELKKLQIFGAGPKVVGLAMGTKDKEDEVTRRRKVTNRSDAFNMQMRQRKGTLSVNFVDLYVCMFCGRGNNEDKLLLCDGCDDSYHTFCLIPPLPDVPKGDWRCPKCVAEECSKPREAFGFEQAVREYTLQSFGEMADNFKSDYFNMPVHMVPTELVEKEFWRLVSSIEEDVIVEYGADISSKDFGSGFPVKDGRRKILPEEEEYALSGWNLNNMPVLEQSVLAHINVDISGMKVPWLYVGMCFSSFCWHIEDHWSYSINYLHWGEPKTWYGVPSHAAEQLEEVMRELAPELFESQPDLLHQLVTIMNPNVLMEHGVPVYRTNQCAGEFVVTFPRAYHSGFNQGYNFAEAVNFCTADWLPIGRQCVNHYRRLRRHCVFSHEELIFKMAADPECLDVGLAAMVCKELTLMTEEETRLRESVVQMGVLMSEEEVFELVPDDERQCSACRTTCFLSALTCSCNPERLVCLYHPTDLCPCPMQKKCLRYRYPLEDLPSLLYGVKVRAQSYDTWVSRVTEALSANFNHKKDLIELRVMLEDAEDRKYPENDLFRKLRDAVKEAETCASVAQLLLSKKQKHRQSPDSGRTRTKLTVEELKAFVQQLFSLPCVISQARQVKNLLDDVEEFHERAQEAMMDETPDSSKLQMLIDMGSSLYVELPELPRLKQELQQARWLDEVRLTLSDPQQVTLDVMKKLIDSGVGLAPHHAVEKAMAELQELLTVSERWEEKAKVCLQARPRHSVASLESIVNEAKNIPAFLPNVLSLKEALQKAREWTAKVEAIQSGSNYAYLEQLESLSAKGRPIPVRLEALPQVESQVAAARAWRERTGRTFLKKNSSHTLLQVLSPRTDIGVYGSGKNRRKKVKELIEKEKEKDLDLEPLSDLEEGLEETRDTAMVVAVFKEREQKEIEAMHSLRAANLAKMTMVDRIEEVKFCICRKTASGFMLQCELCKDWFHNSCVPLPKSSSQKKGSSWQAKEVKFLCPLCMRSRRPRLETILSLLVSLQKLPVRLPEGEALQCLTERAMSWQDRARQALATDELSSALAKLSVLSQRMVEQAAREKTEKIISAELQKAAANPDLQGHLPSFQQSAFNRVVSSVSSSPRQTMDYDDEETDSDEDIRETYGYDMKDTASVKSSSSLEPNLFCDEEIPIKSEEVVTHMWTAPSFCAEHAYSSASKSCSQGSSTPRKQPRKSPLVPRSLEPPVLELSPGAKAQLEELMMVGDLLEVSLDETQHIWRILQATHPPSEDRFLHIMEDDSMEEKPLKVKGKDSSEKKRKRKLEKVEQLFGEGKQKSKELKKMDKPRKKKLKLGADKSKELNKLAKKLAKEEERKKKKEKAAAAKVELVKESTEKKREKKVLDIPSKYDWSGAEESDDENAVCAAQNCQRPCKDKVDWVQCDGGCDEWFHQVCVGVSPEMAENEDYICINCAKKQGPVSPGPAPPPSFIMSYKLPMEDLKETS", "assay": "Inhibition of KDM5A in human PC9 cells assessed as increase in H3K4me3 level after 5 days by mass-spectrometric method", "assay_type": "cell-based", "details": "read-out: EC50"}},
  "data": [
    {"smiles": "CC(C)c1cc(C(=O)N2CC[C@@H](NC(=O)C3CC3)C2)[nH]n1", "values": [
      {"measurement": "CLhep predicted", "setting": "[1]", "value": 1.2, "unit": "mL/min/kg"},
      {"measurement": "IC50", "setting": "[2]", "value": 55, "unit": "nM"},
      {"measurement": "IC50", "setting": "[3]", "value": "> 25000", "unit": "nM"},
      {"measurement": "logD", "setting": "[4]", "value": 1.3},
      {"measurement": "CLhep predicted", "setting": "[5]", "value": 4.2, "unit": "mL/min/kg"},
      {"measurement": "IC50", "setting": "[6]", "value": "> 25000", "unit": "nM"},
      {"measurement": "fraction unbound", "setting": "[7]", "value": 0.6},
      {"measurement": "solubility kinetic", "setting": "[8]", "value": 112, "unit": "µM"},
      {"measurement": "fraction unbound", "setting": "[9]", "value": 0.624},
      {"measurement": "CLhep predicted", "setting": "[10]", "value": 6.3, "unit": "mL/min/kg"},
      {"measurement": "fraction unbound", "setting": "[11]", "value": 0.56},
      {"measurement": "CLhep predicted", "setting": "[12]", "value": 12, "unit": "mL/min/kg"},
      {"measurement": "IC50", "setting": "[13]", "value": "> 25000", "unit": "nM"},
      {"measurement": "Vd", "setting": "[14]", "value": 0.7, "unit": "L/kg"},
      {"measurement": "EC50", "setting": "[15]", "value": 960, "unit": "nM"}
    ]}
  ]
}
